# Measured values published in patent publication US20100056606A1, “Combination therapy using budesonide and antisense oligonucleotide targeted to IL4-receptor alpha” (ISIS Pharmaceuticals, Inc., priority 2005, published 2010).
# Assays:
# IL-4R alpha protein = IL-4R alpha protein in lung cells by flow cytometry, acute model; assay type: in vivo, mouse
# Protocol: (§1) Dendritic cells, eosinophils, macrophages and epithelial cells recovered from collagenase digested lung were analyzed for expression of IL-4R alpha protein by flow cytometry. […] A second experiment, in which mice were dosed with 10 μg/kg ISIS 231894, confirmed the efficacy of ISIS 231894 to decrease AHR and eosinophilia in the acute model.
# OVA sensitized mice [1] = assay: Acute allergic inflammation mouse model with inhaled budesonide and/or ISIS 231894; assay type: in vivo; settings: 1 μg/kg ISIS 231894 alone (Table 9)
# Protocol: In the mouse model of allergic inflammation, mice are sensitized and challenged with aerosolized chicken ovalbumin (OVA). Airway responsiveness is assessed by inducing airflow obstruction using a noninvasive method whereby unrestrained conscious OVA sensitized mice are placed into the main chamber of a plethysmograph (Buxco Electronics, Inc. Troy, N.Y.) and challenged with aerosolized methacholine. Pressure difference between this chamber and a reference chamber is used to extrapolate minute volume, breathing frequency and enhanced pause (Penh). Penh is a dimensionless parameter that is a function of total pulmonary airflow (i.e. the sum of the airflow in the upper and lower respiratory tracts) during the respiratory cycle of a mouse and is lower when airflow is greater.
# The acute mouse model of allergic inflammation was used to determine if co-administration of inhaled IL-4R alpha antisense oligonucleotide would enhance the activity of inhaled budesonide, or reduce the dose required to produce anti-inflammatory activity. As described in Example 6, mice were sensitized with alum-precipitated OVA at day 0 and day 14 and nebulized with OVA in saline on days 24, 25 and 26. All mice were analyzed on day 28. Budesonide (0.3, 3, 30, and 300 μg/kg dissolved in PBS Containing 20% DMSO) was administered by nose-only aerosol exposure beginning on day 23 (24 and 20 hours before OVA exposure) and then daily through day 26, one hour prior to daily OVA exposure. The 30 μg/kg dose was also administered twice a day (bid) from day 23-26 as a separate group. As in Example 6, ISIS 231894 was administered by nose-only aerosol exposure at day 17, 19, 21, 23 and 26.
# The effect of budesonide and/or ISIS 231894 treatment on AHR, BAL eosinophil infiltration and mucus accumulation (number of PAS-positive airways) were determined.
# [2] = Lung concentration, lung half life and tolerability of inhaled oligonucleotide in mice
# OVA sensitized mice [3] = assay: Ovalbumin induced allergic inflammation, acute model (AHR/Penh, BAL eosinophils); assay type: in vivo, mouse; settings: for % Eosinophils (BAL) / Penh (100 mg/mL methacholine): day 28
# Protocol: (§2) In the mouse model of allergic inflammation, mice are sensitized and challenged with aerosolized chicken ovalbumin (OVA). Airway responsiveness is assessed by inducing airflow obstruction using a noninvasive method whereby unrestrained conscious OVA sensitized mice are placed into the main chamber of a plethysmograph (Buxco Electronics, Inc. Troy, N.Y.) and challenged with aerosolized methacholine. Pressure difference between this chamber and a reference chamber is used to extrapolate minute volume, breathing frequency and enhanced pause (Penh). Penh is a dimensionless parameter that is a function of total pulmonary airflow (i.e. the sum of the airflow in the upper and lower respiratory tracts) during the respiratory cycle of a mouse and is […] when airflow is greater. This parameter closely correlates with lung resistance as measured by traditional, invasive techniques using ventilated animals (Hamelmann et al., 1997, Am. J. Respir. Crit. Care Med. 156:766-775).
# The mouse model of allergic inflammation was used to test the efficacy of an inhaled antisense oligonucleotide targeted to mouse IL-4R alpha. A mismatched IL-4R alpha oligonucleotide (mismatch control oligonucleotide) was used as a negative control. Male Balb/c mice 8-10 weeks old (Charles River Laboratory, Taconic Farms, N.Y.) were maintained in micro-isolator cages housed in a specific pathogen free (SPF) facility. The sentinel cages within the animal colony surveyed negative for viral antibodies and the presence of known mouse pathogens.
# For the acute model of allergic inflammation, mice were sensitized with 20 μg of alum-precipitated OVA was injected intraperitoneally on days 0 and 14. On days 24, 25 and 26, animals were exposed for 20 minutes to 1% OVA (in saline) by ultrasonic nebulization. On days 17, 19, 21, 24 and 26 animals were dosed with vehicle alone (saline), 1 μg/kg or 10 μg/kg of ISIS 231894 or the mismatch control oligonucleotide. Oligonucleotides or vehicle were suspended in 0.9% sodium chloride and delivered via inhalation using a nose-only aerosol delivery exposure system. A Lovelace nebulizer set at a flow rate of 1.4 liter per minute feeding into a total flow rate of 10 liters per minute was used to deliver the oligonucleotide. The exposure chamber was equilibrated with an oligonucleotide aerosol solution for 5 minutes before mice were placed in a restraint tube attached to the chamber. Restrained mice were treated for a total of 10 minutes. Analysis was performed on day 28.
# as §1
# OVA sensitized mice [4] = assay: Mouse model of allergic inflammation, rechallenge model (AHR/Penh, BAL eosinophils, cytokines); assay type: in vivo
# Protocol: as §2
# The rechallenge model of allergic inflammation includes a second series of nebulized OVA challenges on days 66 and 67 in addition to the sensitization and challenge steps of the acute model. This model allows for the evaluation of the target's role in a recall response, as opposed to its role as an initiator molecule. In the rechallenge model, mice were treated with 10, 100 or 500 μg/kg of either ISIS 231894 or the mismatch control oligonucleotide on days 52, 54, 56, 59 and 61, subsequent to the onset and resolution of the OVA-induced acute inflammatory response, delivered by nose only inhalation. The study endpoints were similar to those in the acute model, and included Penh response (i.e. AHR reduction), inflammatory cells and cytokines in BAL (determined by ELISA), mucus accumulation (as determined by periodic acid-Schiff base [PAS] staining in lungs), lung histology and IL-4R alpha protein reduction in lung epithelial and inflammatory cells (as determined by flow cytometry). The results are shown below in Tables 5 and 6.
# [5] = mouse, in vivo
# OVA sensitized mice [6] = assay: Mouse model of allergic inflammation, chronic model (Penh, BAL cells, cytokines); assay type: in vivo; settings: for % Eosinophils (BAL) / % Neutrophils (BAL): day 76
# Protocol: as §2
# In the chronic model of allergic inflammation, mice are subjected to repeated intranasal OVA administration, producing a chronic inflammatory response. In this model, mice were sensitized by intraperitoneal injection with 100 μg of OVA on days 0 and 14 as in the previous models. OVA was administered at a dose of 500 μg on days 14, 27, 28, 29, 47, 61, 73, 74 and 75. Oligonucleotide, either ISIS 231894 or the mismatch control, was administered via the nose-only aerosol delivery exposure system at a dose of either 5 μg/kg or 500 μg/kg on days 31, 38, 45, 52, 59, 66 and 73. Dexamethasone, an anti-inflammatory agent, was administered by intraperitoneal injection at 2.5 mg/kg on days 47, 62, 73, 74 and 75. Analysis of endpoints was performed on day 76, except cytokines which were evaluated on day 62, 6 hours post OVA challenge. Endpoints were similar to those in the acute and rechallenge model, and included Penh (AHR), BAL inflammatory cell accumulation and cytokines and mucus accumulation.
substance,measurement,setting,value
"ISIS 231894: lead antisense oligonucleotide targeted to mouse IL-4R alpha; CCGCTGTTCTCAGGTGACAT; SEQ ID NO: 24; 2'-MOE gapmer, phosphorothioate (all phosphorothioate, sugars by position and methylation of C not given here; 2'-MOE gapmer)","IL-4R alpha protein in dendritic, epithelial and mixed eosinophil/macrophage lung cells, in words",IL-4R alpha protein,significant reduction
same,% Eosinophils (BAL),OVA sensitized mice [1],27%
same,PAS+ airways (mucus accumulation),OVA sensitized mice [1],21
same,Penh (100 mg/mL methacholine),OVA sensitized mice [1],6.2
same,"effect of once weekly dosing on AHR and airway inflammation, in words",[2]; mice with well established allergen-induced pulmonary inflammation,reduced AHR and airway inflammation
same,tolerability of intrapulmonary aerosol doses,"[2]; mice, doses up to 1 mg/kg",well-tolerated
same,"eosinophil infiltration in BAL fluid, in words",OVA sensitized mice [3],significant decrease
same,"pulmonary function: lung resistance and compliance, in words",OVA sensitized mice [3],Significant improvement
same,% Eosinophils (BAL),OVA sensitized mice [3]; 1 μg/kg inhaled,35%
same,Penh (100 mg/mL methacholine),OVA sensitized mice [3]; 1 μg/kg inhaled,6
same,% Eosinophils (BAL),OVA sensitized mice [3]; 10 μg/kg inhaled,35%
same,Penh (100 mg/mL methacholine),OVA sensitized mice [3]; 10 μg/kg inhaled,4.5
same,"methacholine-induced AHR (Penh, whole body plethysmography), in words",OVA sensitized mice [3]; 1 and 10 μg/kg inhaled,"significant, dose dependent suppression"
same,"percentage of eosinophils in BAL fluid vs mismatch control, in words",OVA sensitized mice [4],significantly reduced
same,"lung IL-5 mRNA, in words",OVA sensitized mice [4]; 10 μg and 100 μg doses,inhibited
same,% Eosinophils (BAL),OVA sensitized mice [4]; 10 μg/kg inhaled,22%
same,Penh (100 mg/mL methacholine),OVA sensitized mice [4]; 10 μg/kg inhaled,3
same,% Eosinophils (BAL),OVA sensitized mice [4]; 100 μg/kg inhaled,18%
same,Penh (100 mg/mL methacholine),OVA sensitized mice [4]; 100 μg/kg inhaled,3.5
same,% Eosinophils (BAL),OVA sensitized mice [4]; 500 μg/kg inhaled,15%
same,Penh (100 mg/mL methacholine),OVA sensitized mice [4]; 500 μg/kg inhaled,3.5
same,"methacholine-induced AHR (Penh) vs vehicle control, in words","OVA sensitized mice [4]; all three doses (10, 100, 500 μg/kg)",significant reduction
same,"cytokines KC, MCP-1, IL-5 and IL-13 in BAL fluid vs vehicle control, in words","OVA sensitized mice [4]; doses of 100 μg and 500 μg, ELISA",significantly reduced expression
same,half life in the lung,[5],48 to 96 h
same,% Eosinophils (BAL),OVA sensitized mice [6]; 5 μg/kg inhaled,45%
same,% Neutrophils (BAL),OVA sensitized mice [6]; 5 μg/kg inhaled,38%
same,% Eosinophils (BAL),OVA sensitized mice [6]; 500 μg/kg inhaled,29%
same,% Neutrophils (BAL),OVA sensitized mice [6]; 500 μg/kg inhaled,35%
same,"percent of eosinophils in BAL fluid vs vehicle control, in words","OVA sensitized mice [6]; ISIS 231894 500 μg/kg, dexamethasone 2.5 mg/kg ip",significant decrease
same,"methacholine-induced AHR (Penh) vs vehicle, in words","OVA sensitized mice [6]; ISIS 231894 each dose (5, 500 μg/kg), dexamethasone 2.5 mg/kg ip",significant decrease
same,"percent neutrophils in BAL, in words","OVA sensitized mice [6]; both doses of ISIS 231894, dexamethasone 2.5 mg/kg ip",significantly reduced
same,"IL-5 and KC in BAL fluid vs vehicle, in words","OVA sensitized mice [6]; day 62, ISIS 231894 500 μg/kg, dexamethasone 2.5 mg/kg ip",significant reduction
